Literature values as cited in patent US20170326166A1, “COMPOSITIONS AND METHODS FOR TREATING PITUITARY TUMORS” (University of Virginia Patent Foundation, priority 2014, published 2017).

Assays:
cancer cells [1] = conditions: in cancer cells; trapped in the cytosol
cancer cells [2] = conditions: cancer cells compared to their normal counterpart cells or other normal cells

Compound	intracellular half-life (cancer cells [1])	accumulation in cells (cancer cells [2])
O=CC[C@@H](O)[C@H](O)[C@H](O)COP(=O)(O)O [2-deoxyglucose 6-phosphate]	approximately 50 minutes	–
O=CC[C@@H](O)[C@H](O)[C@H](O)CO [2DG, 2-Deoxy-D-glucose]	–	accumulates predominantly in cancer cells
